Source: patent publication US20250312394A1, “Lacticaseibacillus Rhamnosus DY801 and Application Thereof” (priority 2024, published 2025)
In brackets after ≈: the same amount, converted by molar mass. Structures can show the parent of a compound that is named as a salt. Where two headings read alike, the source gives them in different places.

Key:
[1] = test system: Lacticaseibacillus rhamnosus DY801; conditions: bacterial resistance criteria of the General Standard of Probiotics for Food Use; cited from earlier work
[2] = test system: Lacticaseibacillus rhamnosus DY801; test: Antibiotic sensitivity by broth trace-dilution method (MIC); assay type: cell-based; conditions: for MIC: Lacticaseibacillus rhamnosus, read-out: Detected MIC; for Determination of the reading: sensitivity of DY801 to the antibiotic according to the General Standard
Procedure: In the present example, the sensitivity of Lacticaseibacillus rhamnosus DY801 against eight antibiotics was tested using the broth trace-dilution method according to “the General Standard of Probiotics for Food Use” (hereinafter referred as General Standard) published by the Chinese Institute of Food Science and Technology. The eight antibiotics were: tetracycline, streptomycin, ciprofloxacin hydrochloride, clindamycin, vancomycin, chloramphenicol, ampicillin and gentamicin. […] The minimum inhibitory concentration (hereinafter referred as MIC) of Lacticaseibacillus rhamnosus DY801 for each antibiotic was read after 48 hours. The strain thereof was determined to be sensitive(S), intermediate (I), resistant (R) and not required (n.r.) for the antibiotic according to the bacterial resistance criteria provided in the General Standard, and the results are shown in Table 2.

[3] = DY801 suspension 1×10^8 CFU/mL, anaerobic 37° C., read after 48 hours

Compound	MIC in the General Standard [1]	MIC [2, 3]	Determination of the reading [2]	Detected MIC [2, 3]	MIC ([2]; DY801, 48 h)
CC1(C)S[C@@H]2[C@H](NC(=O)[C@H](N)c3ccccc3)C(=O)N2[C@H]1C(=O)O [ampicillin]	4 µg/mL (≈ 11.4 µM)	4 µg/mL (≈ 11.4 µM)	S		
O=C(N[C@H](CO)[C@H](O)c1ccc([N+](=O)[O-])cc1)C(Cl)Cl [chloromycetin, chloramphenicol]	4 µg/mL (≈ 12.4 µM)		S	2 µg/mL	
O=C(O)c1cn(C2CC2)c2cc(N3CCNCC3)c(F)cc2c1=O [ciprofloxacin hydrochloride]		64 µg/mL			
CCC[C@@H]1C[C@@H](C(=O)N[C@@H]([C@H]2O[C@H](SC)[C@H](O)[C@@H](O)[C@H]2O)[C@H](C)Cl)N(C)C1 [clindamycin]		4 µg/mL (≈ 9.41 µM)	S	4 µg/mL	
[H]/N=C(/N)N[C@H]1[C@H](O)[C@@H](O)[C@H](O[C@@H]2O[C@@H](C)[C@](O)(C=O)[C@H]2O[C@@H]2O[C@@H](CO)[C@H](O)[C@@H](O)[C@@H]2NC)[C@@H](N/C(N)=N\[H])[C@@H]1O [streptomycin]	32 µg/mL (≈ 55 µM)	32 µg/mL (≈ 55 µM)	S		
CN(C)[C@@H]1C(O)=C(C(N)=O)C(=O)[C@@]2(O)C(O)=C3C(=O)c4c(O)cccc4[C@@](C)(O)[C@H]3C[C@@H]12 [tetracycline]		8 µg/mL (≈ 18 µM)	S		
CN[C@H](CC(C)C)C(=O)N[C@H]1C(=O)N[C@@H](CC(N)=O)C(=O)N[C@H]2C(=O)N[C@H]3C(=O)N[C@H](C(=O)N[C@H](C(=O)O)c4cc(O)cc(O)c4-c4cc3ccc4O)[C@H](O)c3ccc(c(Cl)c3)Oc3cc2cc(c3O[C@@H]2O[C@H](CO)[C@@H](O)[C@H](O)[C@H]2O[C@H]2C[C@](C)(N)[C@H](O)[C@H](C)O2)Oc2ccc(cc2Cl)[C@H]1O [vancomycin]					64 µg/mL (≈ 44.2 µM)
gentamicin [gentamycin]	16 µg/mL		S	16 µg/mL	
